Measured values as given in patent publication US5140009A (Tap Pharmaceuticals, Inc., priority 1990, dated 1992).
Square brackets hold non-standard residues; d marks the D form. Peptide text beside a SMILES is read from it. * marks the point of attachment. Propanoyl(3-indol-3-yl) = O=C(CCc1c[nH]c2ccccc12)*; Acetyl(1-adamantyl) = O=C(CC12CC3CC(CC(C3)C1)C2)*; Propanoyl(3-(4-F-phenyl)) = O=C(CCc1ccc(F)cc1)*; Propanoyl(3-(4-MeO-Ph)) = COc1ccc(CCC(=O)*)cc1; Hydrocinnamoyl(2,4-F2) = O=C(CCc1ccc(F)cc1F)*; Propanoyl(3-(4-Cl-Ph)) = O=C(CCc1ccc(Cl)cc1)*; X7 = CC1(C)CN(CC(=O)*)C(=O)C(c2ccccc2)=N1; Phenylacetyl(4-Cl) = O=C(Cc1ccc(Cl)cc1)*; Phenylacetyl(4-F) = O=C(Cc1ccc(F)cc1)*; 2Nal = N[C@@H](Cc1ccc2ccccc2c1)C(=O)O; Desaminotyrosyl = O=C(CCc1ccc(O)cc1)*; Cyclopentanecarbonyl = O=C(C1CCCC1)*; NMeY = CN[C@@H](Cc1ccc(O)cc1)C(=O)O; X13 = O=C(CCc1ccc(C(F)(F)F)cc1)*; d2Thi = N[C@H](Cc1cccs1)C(=O)O; X15 = O=C(Cc1ccc(O)cc1)*; X6 = O=C(CCc1ccccc1F)*

The compounds below were run against T1, LHRH receptors (Rattus norvegicus, UniProt P30969) (assay: Receptor Binding (radioligand receptor binding assay)). Details: table 3; rat pituitary membranes, radioiodinated [D-Leu^6 -des Gly^10 ]-LHRH ethyl amide 50 pM, 2 hours at 4° C.; read-out: Receptor Binding pkI (converted).
T1 construct: Pituitary membranes containing LHRH receptors are prepared in batches from quick-frozen rat pituitaries; tissue Hilltop Labs; host or cells: rat pituitary membranes
T1 sequence (P30969 1-327): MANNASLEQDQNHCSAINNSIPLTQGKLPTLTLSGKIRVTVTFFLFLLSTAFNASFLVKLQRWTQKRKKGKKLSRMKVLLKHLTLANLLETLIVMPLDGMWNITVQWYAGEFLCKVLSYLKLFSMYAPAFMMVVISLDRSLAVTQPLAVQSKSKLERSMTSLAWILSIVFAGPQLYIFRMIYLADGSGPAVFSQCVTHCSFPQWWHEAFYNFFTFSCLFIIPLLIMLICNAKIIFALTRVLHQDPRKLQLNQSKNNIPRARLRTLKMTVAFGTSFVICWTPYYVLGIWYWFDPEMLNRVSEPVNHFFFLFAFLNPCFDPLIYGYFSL

Ki [nM]	SMILES
0.145	CCNC(=O)[C@@H]1CCCN1C(=O)[C@H](CCCNC(=N)N)NC(=O)[C@H](CC(C)C)NC(=O)[C@@H](CCCNC(=N)N)NC(=O)[C@H](Cc1ccc(O)cc1)NC(=O)[C@H](CO)NC(=O)[C@H](Cc1c[nH]c2ccccc12)NC(=O)[C@H](Cc1ccccc1)NC(=O)C1CCCC1 [Compound 70, N-(Cyclopentylcarbonyl)-Phe-Trp-Ser-Tyr-D-Arg-Leu-Arg-Pro-NHEt] (Cyclopentanecarbonyl-FWSY[dR]LRP-NHEt)
3.16	CCNC(=O)[C@@H]1CCCN1C(=O)[C@H](CCCNC(=N)N)NC(=O)[C@H](CC(C)C)NC(=O)[C@@H](Cc1c[nH]c2ccccc12)NC(=O)[C@H](CCCCN)NC(=O)[C@H](CO)NC(=O)[C@H](Cc1c[nH]c2ccccc12)NC(=O)[C@H](Cc1c[nH]cn1)NC(=O)CN1CC(C)(C)N=C(c2ccccc2)C1=O [Compound 71, N-(5,6-Dihydro-5,5-dimethyl-2-oxo-3-phenyl-1-(2H)-pyrazineacetyl)-His-Trp-Ser-Lys-D-Trp-Leu-Arg-ProNHEt] (X7-HWSK[dW]LRP-NHEt)
0.166	CCNC(=O)[C@@H]1CCCN1C(=O)[C@H](CCCNC(=N)N)NC(=O)[C@H](CC(C)C)NC(=O)[C@@H](Cc1c[nH]c2ccccc12)NC(=O)[C@H](Cc1ccc(O)cc1)NC(=O)[C@H](CO)NC(=O)[C@H](Cc1c[nH]c2ccccc12)NC(=O)[C@H](Cc1ccccc1)NC(C)=O [Compound 72, N-Acetyl-Phe-Trp-Ser-Tyr-D-Trp-Leu-Arg-ProNHEt] (Ac-FWSY[dW]LRP-NHEt)
70.8	CCNC(=O)[C@@H]1CCCN1C(=O)[C@H](CCCNC(=N)N)NC(=O)[C@H](CC(C)C)NC(=O)[C@@H](Cc1c[nH]c2ccccc12)NC(=O)[C@H](Cc1ccc(O)cc1)NC(=O)[C@H](CO)NC(=O)Cc1ccc(O)cc1 [Compound 73, (4-9)[N-(3-(4-Hydroxyphenyl)acetyl) -Ser^4 -D-Trp^6 -Pro^9 NHEt]LHRH] (X15-SY[dW]LRP-NHEt)
26.3	CCNC(=O)[C@@H]1CCCN1C(=O)[C@H](CCCNC(=N)N)NC(=O)[C@H](CC(C)C)NC(=O)[C@@H](Cc1c[nH]c2ccccc12)NC(=O)[C@H](Cc1ccc(O)cc1)NC(=O)[C@H](CO)NC(=O)Cc1ccc(F)cc1 [Compound 74, (4-9)[N-(3-(4-Fluorophenyl)acetyl) -Ser^4 -D-Trp^6 -Pro^9 NHEt]LHRH] ({Phenylacetyl(4-F)}-SY[dW]LRP-NHEt)
7.08	CCNC(=O)[C@@H]1CCCN1C(=O)[C@H](CCCNC(=N)N)NC(=O)[C@H](CC(C)C)NC(=O)[C@@H](Cc1c[nH]c2ccccc12)NC(=O)[C@H](Cc1ccc(O)cc1)NC(=O)[C@H](CO)NC(=O)Cc1ccc(Cl)cc1 [Compound 75, (4-9)[N-(3-(4-Chlorophenyl)acetyl) -Ser^4 -D-Trp^6 -Pro^9 NHEt]LHRH] ({Phenylacetyl(4-Cl)}-SY[dW]LRP-NHEt)
43.7	CCNC(=O)[C@@H]1CCCN1C(=O)[C@H](CCCNC(=N)N)NC(=O)[C@H](CC(C)C)NC(=O)[C@@H](Cc1c[nH]c2ccccc12)NC(=O)[C@H](Cc1ccc(O)cc1)NC(=O)[C@H](CO)NC(=O)CCc1ccc(O)cc1 [Compound 76, (4-9)[N-(3-(4-Hydroxyphenyl)propionyl) -Ser^4 -D-Trp^6 -Pro^9 NHEt]LHRH] (Desaminotyrosyl-SY[dW]LRP-NHEt)
3.98	CCNC(=O)[C@@H]1CCCN1C(=O)[C@H](CCCNC(=N)N)NC(=O)[C@H](CC(C)C)NC(=O)[C@@H](Cc1c[nH]c2ccccc12)NC(=O)[C@H](Cc1ccc(O)cc1)NC(=O)[C@H](CO)NC(=O)CCc1ccc(F)cc1 [Compound 77, (4-9)[N-(3-(4-Fluorophenyl)propionyl) -Ser^4 -D-Trp^6 -Pro^9 NHEt]LHRH] ({Propanoyl(3-(4-F-phenyl))}-SY[dW]LRP-NHEt)
10.7	CCNC(=O)[C@@H]1CCCN1C(=O)[C@H](CCCNC(=N)N)NC(=O)[C@H](CC(C)C)NC(=O)[C@@H](Cc1c[nH]c2ccccc12)NC(=O)[C@H](Cc1ccc(O)cc1)NC(=O)[C@H](CO)NC(=O)CCc1ccc(OC)cc1 [Compound 78, (4-9)[N-(3-(4-Methoxyphenyl)propionyl) -Ser^4 -D-Trp^6 -Pro^9 NHEt]LHRH] ({Propanoyl(3-(4-MeO-Ph))}-SY[dW]LRP-NHEt)
1.95	CCNC(=O)[C@@H]1CCCN1C(=O)[C@H](CCCNC(=N)N)NC(=O)[C@H](CC(C)C)NC(=O)[C@@H](Cc1c[nH]c2ccccc12)NC(=O)[C@H](Cc1ccc(O)cc1)NC(=O)[C@H](CO)NC(=O)CCc1ccc(C(F)(F)F)cc1 [Compound 79, (4-9)[N-(3-(4-Trifluoromethylphenyl)propionyl)-Ser^4 -D-Trp^6 -Pro^9 NHEt]LHRH] (X13-SY[dW]LRP-NHEt)
50.1	CCNC(=O)[C@@H]1CCCN1C(=O)[C@H](CCCNC(=N)N)NC(=O)[C@H](CC(C)C)NC(=O)[C@@H](Cc1cccs1)NC(=O)[C@H](Cc1ccc(O)cc1)NC(=O)[C@H](CO)NC(=O)CCc1c[nH]c2ccccc12 [Compound 80, (4-9)[N-(3-(3-Indole)propionyl) -Ser^4 -D-Thia^6 -Pro^9 NHEt]LHRH] ({Propanoyl(3-indol-3-yl)}-SY[d2Thi]LRP-NHEt)
0.589	CCNC(=O)[C@@H]1CCCN1C(=O)[C@H](CCCNC(=N)N)NC(=O)[C@H](CC(C)C)NC(=O)[C@@H](Cc1c[nH]c2ccccc12)NC(=O)[C@H](Cc1ccc(O)cc1)N(C)C(=O)[C@H](CO)NC(=O)CC12CC3CC(CC(C3)C1)C2 [Compound 81, N-[(1-Adamantyl)acetyl]-Ser-N-Me-Tyr-D-Trp-Leu-Arg-Pro -NHEt] ({Acetyl(1-adamantyl)}-S[NMeY][dW]LRP-NHEt)
1.41	CCNC(=O)[C@@H]1CCCN1C(=O)[C@H](CCCNC(=N)N)NC(=O)[C@H](CC(C)C)NC(=O)[C@@H](Cc1c[nH]c2ccccc12)NC(=O)[C@H](Cc1ccc(O)cc1)NC(=O)[C@H](CO)NC(=O)[C@H](Cc1ccc2ccccc2c1)NC(C)=O [Compound 84, (3-9)[N-Ac-2-Nal^3 -D-Trp^6 -Pro^9 NHEt]LHRH] (Ac-[2Nal]SY[dW]LRP-NHEt)
0.0741	CCNC(=O)[C@@H]1CCCN1C(=O)[C@H](CCCN=C(N)N)NC(=O)[C@H](CC(C)C)NC(=O)[C@@H](Cc1c[nH]c2ccccc12)NC(=O)[C@H](Cc1ccc(O)cc1)NC(=O)[C@H](CO)NC(=O)[C@@H](Cc1c[nH]c2ccccc12)NC(=O)CCc1ccc(Cl)cc1 [Compound 85, (3 9)[N-(3-(4-Chlorophenyl)propionyl)-D-Trp^3,6 -Pro^9 NHEt]LHRH] ({Propanoyl(3-(4-Cl-Ph))}-[dW]SY[dW]LRP-NHEt)
0.0174	CCNC(=O)[C@@H]1CCCN1C(=O)[C@H](CCCN=C(N)N)NC(=O)[C@H](CC(C)C)NC(=O)[C@@H](Cc1c[nH]c2ccccc12)NC(=O)[C@H](Cc1ccc(O)cc1)NC(=O)[C@H](CO)NC(=O)[C@@H](Cc1ccc(O)cc1)NC(=O)CCc1ccc(Cl)cc1 [Compound 86, (3-9)[N-(3-(4-Chlorophenyl)propionyl)-D -Tyr^3 -D-Trp^6 -Pro^9 NHEt]LHRH] ({Propanoyl(3-(4-Cl-Ph))}-[dY]SY[dW]LRP-NHEt)
0.129	CCNC(=O)[C@@H]1CCCN1C(=O)[C@H](CCCN=C(N)N)NC(=O)[C@H](CC(C)C)NC(=O)[C@@H](Cc1c[nH]c2ccccc12)NC(=O)[C@H](Cc1ccc(O)cc1)NC(=O)[C@H](CO)NC(=O)[C@H](Cc1ccc(O)cc1)NC(=O)CCc1ccc(Cl)cc1 [Compound 87, (3-9)[N-(3-(4-Chlorophenyl)propionyl) -Tyr^3 -D-Trp^6 -Pro^9 NHEt]LHRH] ({Propanoyl(3-(4-Cl-Ph))}-YSY[dW]LRP-NHEt)
0.0575	CCNC(=O)[C@@H]1CCCN1C(=O)[C@H](CCCNC(=N)N)NC(=O)[C@H](CC(C)C)NC(=O)[C@@H](Cc1c[nH]c2ccccc12)NC(=O)[C@H](Cc1ccc(O)cc1)NC(=O)[C@H](CO)NC(=O)[C@H](Cc1c[nH]c2ccccc12)NC(=O)CCc1ccccc1F [Compound 88, (3-9)[N-(3-(2-Fluorophenyl)propionyl) -Trp^3 -D-Trp^6 -Pro^9 NHEt]LHRH] (X6-WSY[dW]LRP-NHEt)
0.0316	CCNC(=O)[C@@H]1CCCN1C(=O)[C@H](CCCN=C(N)N)NC(=O)[C@H](CC(C)C)NC(=O)[C@@H](Cc1c[nH]c2ccccc12)NC(=O)[C@H](Cc1ccc(O)cc1)NC(=O)[C@H](CO)NC(=O)[C@@H](Cc1c[nH]c2ccccc12)NC(=O)CCc1ccc(F)cc1F [Compound 90, (3-9)[N-(3-(2,4-Difluorophenyl)propionyl) -D-Trp^3,6 -Pro^9 NHEt]LHRH] ({Hydrocinnamoyl(2,4-F2)}-[dW]SY[dW]LRP-NHEt)
0.0288	CCNC(=O)[C@@H]1CCCN1C(=O)[C@H](CCCNC(=N)N)NC(=O)[C@H](CC(C)C)NC(=O)[C@@H](Cc1c[nH]c2ccccc12)NC(=O)[C@H](Cc1ccc(O)cc1)NC(=O)[C@H](CO)NC(=O)[C@@H](Cc1c[nH]c2ccccc12)NC(=O)CCc1ccc(F)cc1 [Compound 91, (3-9)[N-(3-(4-Fluorophenyl)propionyl) -D-Trp^3,6 Pro^9 NHEt]LHRH] ({Propanoyl(3-(4-F-phenyl))}-[dW]SY[dW]LRP-NHEt)
0.0316	CCNC(=O)[C@@H]1CCCN1C(=O)[C@H](CCCN=C(N)N)NC(=O)[C@H](CC(C)C)NC(=O)[C@@H](Cc1ccc(O)cc1)NC(=O)[C@H](Cc1ccc(O)cc1)NC(=O)[C@H](CO)NC(=O)[C@H](Cc1c[nH]c2ccccc12)NC(=O)CCc1ccc(F)cc1 [Compound 92, (3-9)[N-(3-(4-Fluorophenyl)propionyl) -Trp^3 -D-Tyr^6 -Pro^9 NHEt]LHRH] ({Propanoyl(3-(4-F-phenyl))}-WSY[dY]LRP-NHEt)
